Measurements from the supplement of paper PMC10307832.

Legend:
Test in all cases: relative viability (nuclei count vs DMSO), 5 days (fraction); higher = more cells survive
201T = system: 201T
Method in brief: (§1)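 Each reported value is a median over duplicate plates. It expresses relative viability: treated-well nuclei count divided by vehicle-well nuclei count. Lung cancer cell lines in 1536-well plates were dosed by pin tool a day after seeding, alone with one drug or with a fixed anchor-drug dose plus five library-drug doses (not always all listed) in √10 steps, and nuclei were counted after 5 days.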

BEN = system: BEN
Method in brief: as §1

EMC-BAC-2 = system: EMC-BAC-2
Method in brief: as §1

HARA = system: HARA
Method in brief: as §1

LCLC-103H = system: LCLC-103H
Method in brief: as §1

LOU-NH91 = system: LOU-NH91
Method in brief: as §1

NCI-H1395 = system: NCI-H1395
Method in brief: as §1

NCI-H1993 = system: NCI-H1993
Method in brief: as §1

NCI-H2023 = system: NCI-H2023
Method in brief: as §1

NCI-H2087 = system: NCI-H2087
Method in brief: as §1

NCI-H2126 = system: NCI-H2126
Method in brief: as §1

NCI-H2347 = system: NCI-H2347
Method in brief: as §1

NCI-H23 = system: NCI-H23
Method in brief: as §1

NCI-H3122 = system: NCI-H3122
Method in brief: as §1

NCI-H441 = system: NCI-H441
Method in brief: as §1

NCI-H522 = system: NCI-H522
Method in brief: as §1

NCI-H596 = system: NCI-H596
Method in brief: as §1

NCI-H647 = system: NCI-H647
Method in brief: as §1

NCI-H650 = system: NCI-H650
Method in brief: as §1

NCI-H727 = system: NCI-H727
Method in brief: as §1

NCI-H838 = system: NCI-H838
Method in brief: as §1

CC(=O)O[C@@]12CO[C@@H]1C[C@H](O)[C@@]1(C)C(=O)[C@H](O)C3=C(C)[C@@H](OC(=O)[C@H](O)[C@@H](NC(=O)OC(C)(C)C)c4ccccc4)C[C@@](O)([C@@H](OC(=O)c4ccccc4)[C@H]21)C3(C)C [Docetaxel] + Cc1nc(Nc2ncc(C(=O)Nc3c(C)cccc3Cl)s2)cc(N2CCN(CCO)CC2)n1 [Dasatinib] (partner 0.075 µM)
relative viability (201T; first compound 0.0002 µM): 0.562
relative viability (201T; first compound 0.000632 µM): 0.548
relative viability (201T; first compound 0.002 µM): 0.52
relative viability (201T; first compound 0.006325 µM): 0.46
relative viability (201T; first compound 0.02 µM): 0.282
relative viability (BEN; first compound 0.0002 µM): 0.281
relative viability (BEN; first compound 0.000632 µM): 0.355
relative viability (BEN; first compound 0.002 µM): 0.328
relative viability (BEN; first compound 0.006325 µM): 0.183
relative viability (BEN; first compound 0.02 µM): 0.154
relative viability (EMC-BAC-2; first compound 0.0002 µM): 0.298
relative viability (EMC-BAC-2; first compound 0.000632 µM): 0.232
relative viability (EMC-BAC-2; first compound 0.002 µM): 0.192
relative viability (EMC-BAC-2; first compound 0.006325 µM): 0.228
relative viability (EMC-BAC-2; first compound 0.02 µM): 0.132
relative viability (HARA; first compound 0.0002 µM): 0.261
relative viability (HARA; first compound 0.000632 µM): 0.173
relative viability (HARA; first compound 0.002 µM): 0.134
relative viability (HARA; first compound 0.006325 µM): 0.0839
relative viability (HARA; first compound 0.02 µM): 0.0451
relative viability (LCLC-103H; first compound 0.0002 µM): 0.34
relative viability (LCLC-103H; first compound 0.000632 µM): 0.456
relative viability (LCLC-103H; first compound 0.002 µM): 0.337
relative viability (LCLC-103H; first compound 0.006325 µM): 0.311
relative viability (LCLC-103H; first compound 0.02 µM): 0.19
relative viability (LOU-NH91; first compound 0.0002 µM): 0.553
relative viability (LOU-NH91; first compound 0.000632 µM): 0.533
relative viability (LOU-NH91; first compound 0.002 µM): 0.345
relative viability (LOU-NH91; first compound 0.006325 µM): 0.304
relative viability (LOU-NH91; first compound 0.02 µM): 0.247
relative viability (NCI-H1395; first compound 0.0002 µM): 0.439
relative viability (NCI-H1395; first compound 0.000632 µM): 0.469
relative viability (NCI-H1395; first compound 0.002 µM): 0.402
relative viability (NCI-H1395; first compound 0.006325 µM): 0.327
relative viability (NCI-H1395; first compound 0.02 µM): 0.272
relative viability (NCI-H1993; first compound 0.0002 µM): 0.569
relative viability (NCI-H1993; first compound 0.000632 µM): 0.612
relative viability (NCI-H1993; first compound 0.002 µM): 0.589
relative viability (NCI-H1993; first compound 0.006325 µM): 0.638
relative viability (NCI-H1993; first compound 0.02 µM): 0.465
relative viability (NCI-H2023; first compound 0.0002 µM): 0.467
relative viability (NCI-H2023; first compound 0.000632 µM): 0.339
relative viability (NCI-H2023; first compound 0.002 µM): 0.134
relative viability (NCI-H2023; first compound 0.006325 µM): 0.123
relative viability (NCI-H2023; first compound 0.02 µM): 0.0567
relative viability (NCI-H2087; first compound 0.0002 µM): 0.809
relative viability (NCI-H2087; first compound 0.000632 µM): 0.371
relative viability (NCI-H2087; first compound 0.002 µM): 0.171
relative viability (NCI-H2087; first compound 0.006325 µM): 0.139
relative viability (NCI-H2087; first compound 0.02 µM): 0.102
relative viability (NCI-H2126; first compound 0.0002 µM): 0.659
relative viability (NCI-H2126; first compound 0.000632 µM): 0.573
relative viability (NCI-H2126; first compound 0.002 µM): 0.363
relative viability (NCI-H2126; first compound 0.006325 µM): 0.339
relative viability (NCI-H2347; first compound 0.0002 µM): 0.336
relative viability (NCI-H2347; first compound 0.000632 µM): 0.326
relative viability (NCI-H2347; first compound 0.002 µM): 0.242
relative viability (NCI-H2347; first compound 0.006325 µM): 0.23
relative viability (NCI-H2347; first compound 0.02 µM): 0.241
relative viability (NCI-H23; first compound 0.0002 µM): 0.838
relative viability (NCI-H23; first compound 0.000632 µM): 0.777
relative viability (NCI-H23; first compound 0.002 µM): 0.483
relative viability (NCI-H23; first compound 0.006325 µM): 0.188
relative viability (NCI-H23; first compound 0.02 µM): 0.0867
relative viability (NCI-H3122; first compound 0.0002 µM): 0.822
relative viability (NCI-H3122; first compound 0.000632 µM): 0.694
relative viability (NCI-H3122; first compound 0.002 µM): 0.508
relative viability (NCI-H3122; first compound 0.006325 µM): 0.102
relative viability (NCI-H3122; first compound 0.02 µM): 0.078
relative viability (NCI-H441; first compound 0.0002 µM): 0.621
relative viability (NCI-H441; first compound 0.000632 µM): 0.499
relative viability (NCI-H441; first compound 0.002 µM): 0.235
relative viability (NCI-H441; first compound 0.006325 µM): 0.224
relative viability (NCI-H441; first compound 0.02 µM): 0.148
relative viability (NCI-H522; first compound 0.0002 µM): 0.712
relative viability (NCI-H522; first compound 0.000632 µM): 0.866
relative viability (NCI-H522; first compound 0.002 µM): 0.649
relative viability (NCI-H522; first compound 0.006325 µM): 0.672
relative viability (NCI-H522; first compound 0.02 µM): 0.49
relative viability (NCI-H596; first compound 0.0002 µM): 0.551
relative viability (NCI-H596; first compound 0.000632 µM): 0.6
relative viability (NCI-H596; first compound 0.002 µM): 0.543
relative viability (NCI-H596; first compound 0.006325 µM): 0.397
relative viability (NCI-H596; first compound 0.02 µM): 0.222
relative viability (NCI-H647; first compound 0.0002 µM): 0.137
relative viability (NCI-H647; first compound 0.000632 µM): 0.132
relative viability (NCI-H647; first compound 0.002 µM): 0.0799
relative viability (NCI-H647; first compound 0.006325 µM): 0.0795
relative viability (NCI-H647; first compound 0.02 µM): 0.0407
relative viability (NCI-H650; first compound 0.0002 µM): 0.396
relative viability (NCI-H650; first compound 0.000632 µM): 0.361
relative viability (NCI-H650; first compound 0.002 µM): 0.253
relative viability (NCI-H650; first compound 0.006325 µM): 0.228
relative viability (NCI-H650; first compound 0.02 µM): 0.198
relative viability (NCI-H727; first compound 0.0002 µM): 0.367
relative viability (NCI-H727; first compound 0.000632 µM): 0.326
relative viability (NCI-H727; first compound 0.002 µM): 0.272
relative viability (NCI-H727; first compound 0.006325 µM): 0.395
relative viability (NCI-H727; first compound 0.02 µM): 0.276
relative viability (NCI-H838; first compound 0.0002 µM): 0.318
relative viability (NCI-H838; first compound 0.000632 µM): 0.3
relative viability (NCI-H838; first compound 0.002 µM): 0.265
relative viability (NCI-H838; first compound 0.006325 µM): 0.247
relative viability (NCI-H838; first compound 0.02 µM): 0.175
